test system: primary rat hippocampal neurons and dorsal root ganglion neurons; experiment: not given; settings: cited from earlier work

Row | SMILES | protection of neurons from lethal effects of HIV-1 gp120
1 | CCSCc1ccc2c(c1)c1c3c(c4c5cc(CSCC)ccc5n5c4c1n2[C@H]1C[C@](O)(C(=O)OC)[C@]5(C)O1)CNC3=O [CEP1347] | can protect

test system: in vivo model of HIV-1 infection; experiment: not given; settings: reversing microglial activation, restoring normal synaptic architecture; cited from earlier work

Row | SMILES | neuroprotection in in vivo model of HIV-1 infection
2 | CCSCc1ccc2c(c1)c1c3c(c4c5cc(CSCC)ccc5n5c4c1n2[C@H]1C[C@](O)(C(=O)OC)[C@]5(C)O1)CNC3=O [CEP1347] | neuroprotective

test system: not listed separately; experiment: Pharmacokinetic evaluation in mice (plasma and brain AUC); format: in vivo; set-up: unit not given here; settings: CL57 BL/6 mice, single IV injection 10 mg/kg, brain homogenate
Experimental: Several compounds disclosed herein were evaluated in a standard murine pharmacokinetic model. […] Three mice in each group were used for blood and brain collection at each time point. […] The brain of each animal was collected after the final blood collection. The whole tissue was harvested, excised and rinsed by saline, dried by filter paper, and then placed into one tube per tissue per animal. All samples were stored at −20° C. until bioanalysis. Compound concentrations in plasma and brain homogenate were determined using a high performance liquid chromatography/mass spectrometry (HPLC/MS/MS) method (Agilent 1100 series HPLC, AB Inc. API4000 triple-quadrupole with an ESI interface and Analyst 1.4 software). Results in the form of area under the time-versus-concentration curve (AUC) are given below in Table 11.

Row | SMILES | AUC Brain
3 | COc1cc(-c2cnc3[nH]cc(-c4ccc5[nH]ccc5c4)c3c2)cc(OC)c1OC [Example 1, 3-(1H-indol-5-yl)-5-(3,4,5-trimethoxyphenyl)-1H-pyrrolo[2,3-b]pyridine] | + (+ indicates ≧500)
4 | Nc1ccc(-c2cnc3[nH]cc(-c4ccc5[nH]ccc5c4)c3c2)cn1 [Example 4, 5-(3-(1H-indol-5-yl)-1H-pyrrolo[2,3-b]pyridin-5-yl)pyridin-2-amine] | − (− indicates <500)
5 | Nc1ncc(-c2cnc3[nH]cc(-c4ccc5[nH]ccc5c4)c3c2)cn1 [Example 9, 5-(3-(1H-indol-5-yl)-1H-pyrrolo[2,3-b]pyridin-5-yl)pyrimidin-2-amine] | + (+ indicates ≧500)
6 | COc1cc(-c2cnc3[nH]cc(-c4cnc(N)nc4)c3c2)cc(OC)c1OC [Example 17, 5-(5-(3,4,5-trimethoxyphenyl)-1H-pyrrolo[2,3-b]pyridin-3-yl)pyrimidin-2-amine] | − (− indicates <500)
7 | COc1cc(-c2cnc3[nH]cc(-c4ccc(N)nc4)c3c2)cc(OC)c1OC [Example 18, 5-(5-(3,4,5-trimethoxyphenyl)-1H-pyrrolo[2,3-b]pyridin-3-yl)pyridin-2-amine] | − (− indicates <500)
8 | CN1CCN(Cc2ccc(-c3cnc4[nH]cc(-c5ccc6[nH]ccc6c5)c4c3)cc2)CC1 [Example 32, 3-(1H-indol-5-yl)-5-(4-((4-methylpiperazin-1-yl)methyl)phenyl)-1H-pyrrolo[2,3-b]pyridine] | + (+ indicates ≧500)

biological target: T1, MLK3 (Homo sapiens, UniProt Q16584); experiment: Radiometric filter plate MLK3 assay; format: biochemical; settings: not given; on MK3 IC50: 2 µM cold ATP (Km)
T1 construct: purchased Dundee DU8313
Experimental: After a twenty minute incubation, the reactions were washed through filter plates and read on a scintillation counter. Results are shown in Table 10 below, in which +++ indicates ≦0.1 μM, ++ indicates >0.1 μM and ≦1 μM, and + indicates >1 μM.

T1 sequence (Q16584 whole entry): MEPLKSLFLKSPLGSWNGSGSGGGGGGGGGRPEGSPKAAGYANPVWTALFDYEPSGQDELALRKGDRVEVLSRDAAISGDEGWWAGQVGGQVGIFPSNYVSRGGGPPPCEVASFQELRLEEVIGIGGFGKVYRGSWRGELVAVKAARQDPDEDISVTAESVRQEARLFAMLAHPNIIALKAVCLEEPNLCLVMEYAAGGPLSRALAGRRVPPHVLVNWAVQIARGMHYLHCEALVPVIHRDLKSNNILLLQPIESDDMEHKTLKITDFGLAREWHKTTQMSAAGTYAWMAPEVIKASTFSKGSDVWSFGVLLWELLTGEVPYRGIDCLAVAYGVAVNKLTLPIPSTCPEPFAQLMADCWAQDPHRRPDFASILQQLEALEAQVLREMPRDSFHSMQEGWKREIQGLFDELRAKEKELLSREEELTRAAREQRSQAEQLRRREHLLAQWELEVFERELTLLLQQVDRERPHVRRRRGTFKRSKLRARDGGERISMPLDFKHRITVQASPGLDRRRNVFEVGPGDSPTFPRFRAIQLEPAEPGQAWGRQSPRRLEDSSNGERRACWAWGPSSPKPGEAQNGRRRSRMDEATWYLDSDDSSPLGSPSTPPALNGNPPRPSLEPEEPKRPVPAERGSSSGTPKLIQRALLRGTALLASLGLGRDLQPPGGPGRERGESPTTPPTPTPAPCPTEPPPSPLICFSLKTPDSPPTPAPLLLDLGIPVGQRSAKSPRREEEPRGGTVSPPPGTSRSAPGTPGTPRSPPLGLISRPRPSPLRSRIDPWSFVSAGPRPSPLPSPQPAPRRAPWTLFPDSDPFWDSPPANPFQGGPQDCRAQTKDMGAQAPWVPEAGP

Row | SMILES | IC50 [nM]
9 | CC(C)OC(=O)N1CCN(Cc2ccc(-c3cnc4[nH]cc(-c5ccc6[nH]ccc6c5)c4c3)cc2)CC1 [Example 185] | 100 to 1000

same assay, conditions: read-out: MK3 IC50

Row | SMILES | IC50 [nM]
10 | Nc1ccc(-c2cnc3[nH]cc(-c4ccc5[nH]ccc5c4)c3c2)cn1 [Example 4, 5-(3-(1H-indol-5-yl)-1H-pyrrolo[2,3-b]pyridin-5-yl)pyridin-2-amine] | < 100
11 | Nc1ncc(-c2cnc3[nH]cc(-c4ccc5[nH]ccc5c4)c3c2)cn1 [Example 9, 5-(3-(1H-indol-5-yl)-1H-pyrrolo[2,3-b]pyridin-5-yl)pyrimidin-2-amine] | < 100
12 | COc1cc(-c2cnc3[nH]cc(-c4cnc(N)nc4)c3c2)cc(OC)c1OC [Example 17, 5-(5-(3,4,5-trimethoxyphenyl)-1H-pyrrolo[2,3-b]pyridin-3-yl)pyrimidin-2-amine] | < 100
13 | COc1cc(-c2cnc3[nH]cc(-c4ccc(N)nc4)c3c2)cc(OC)c1OC [Example 18, 5-(5-(3,4,5-trimethoxyphenyl)-1H-pyrrolo[2,3-b]pyridin-3-yl)pyridin-2-amine] | < 100
14 | CN1CCN(Cc2ccc(-c3c[nH]c4ncc(-c5ccc(C(N)=O)cc5)cc34)cc2)CC1 [Example 162, 4-{3-[4-(4-methyl-piperazin-1-ylmethyl)-phenyl]-1H-pyrrolo[2,3-b]pyridin-5-yl}-benzamide] | < 100
15 | CN1CCN(Cc2ccc(-c3c[nH]c4ncc(-c5ccc6[nH]ccc6c5)cc34)cc2)CC1 [Example 163, 5-(1H-indol-5-yl)-3-[4-(4-methyl-piperazin-1-ylmethyl)-phenyl]-1H-pyrrolo[2,3-b]pyridine] | > 1000
16 | CNC(=O)c1ccc(-c2c[nH]c3ncc(-c4ccc(CN5CCN(C)CC5)cc4)cc23)cc1 [Example 165, N-methyl-4-{5-[4-(4-methyl-piperazin-1-ylmethyl)-phenyl]-1H-pyrrolo[2,3-b]pyridin-3-yl}-benzamide] | < 100
17 | c1cc2cc(-c3c[nH]c4ncc(-c5ccc(CN6CCOCC6)cc5)cc34)ccc2[nH]1 [Example 169, 4-(4-(3-(1H-indol-5-yl)-1H-pyrrolo[2,3-b]pyridin-5-yl)benzyl)morpholine] | < 100
18 | CN1CCN(Cc2ccc(-c3cnc4[nH]cc(-c5ccc(F)cc5)c4c3)cc2)CC1 [Example 170] | > 1000
19 | CN1CCN(Cc2ccc(-c3cnc4[nH]cc(-c5ccc(C(F)(F)F)cc5)c4c3)cc2)CC1 [Example 171] | > 1000
20 | c1ccc(CN2CCN(Cc3ccc(-c4cnc5[nH]cc(-c6ccc7[nH]ccc7c6)c5c4)cc3)CC2)cc1 [Example 178] | 100 to 1000
21 | CC(C)(C)CC(=O)N1CCN(Cc2ccc(-c3cnc4[nH]cc(-c5ccc6[nH]ccc6c5)c4c3)cc2)CC1 [Example 182] | < 100
22 | CCOC(=O)N1CCN(Cc2ccc(-c3cnc4[nH]cc(-c5ccc6[nH]ccc6c5)c4c3)cc2)CC1 [Example 183] | < 100
23 | COC(=O)N1CCN(Cc2ccc(-c3cnc4[nH]cc(-c5ccc6[nH]ccc6c5)c4c3)cc2)CC1 [Example 184] | < 100
24 | CC(C)C(=O)N1CCN(Cc2ccc(-c3cnc4[nH]cc(-c5ccc6[nH]ccc6c5)c4c3)cc2)CC1 [Example 186] | < 100
25 | CCC(=O)N1CCN(Cc2ccc(-c3cnc4[nH]cc(-c5ccc6[nH]ccc6c5)c4c3)cc2)CC1 [Example 187] | < 100

Row | SMILES | IC50 [nM]
26 | COCC(=O)N1CCN(Cc2ccc(-c3cnc4[nH]cc(-c5ccc6[nH]ccc6c5)c4c3)cc2)CC1 [Example 188] | < 100
27 | CCS(=O)(=O)N1CCN(Cc2ccc(-c3cnc4[nH]cc(-c5ccc6[nH]ccc6c5)c4c3)cc2)CC1 [Example 189] | < 100
28 | CS(=O)(=O)N1CCN(Cc2ccc(-c3cnc4[nH]cc(-c5ccc6[nH]ccc6c5)c4c3)cc2)CC1 [Example 190] | < 100
29 | O=C(CCO)N1CCN(Cc2ccc(-c3cnc4[nH]cc(-c5ccc6[nH]ccc6c5)c4c3)cc2)CC1 [Example 191] | < 100
30 | COCCC(=O)N1CCN(Cc2ccc(-c3cnc4[nH]cc(-c5ccc6[nH]ccc6c5)c4c3)cc2)CC1 [Example 192] | < 100
31 | O=C(CC1CC1)N1CCN(Cc2ccc(-c3cnc4[nH]cc(-c5ccc6[nH]ccc6c5)c4c3)cc2)CC1 [Example 193] | < 100
32 | CC(C)CC(=O)N1CCN(Cc2ccc(-c3cnc4[nH]cc(-c5ccc6[nH]ccc6c5)c4c3)cc2)CC1 [Example 194] | < 100
33 | O=C1CCC(C(=O)N2CCN(Cc3ccc(-c4cnc5[nH]cc(-c6ccc7[nH]ccc7c6)c5c4)cc3)CC2)N1 (centres unmarked) [Example 195] | < 100
34 | CC(=O)N1CCN(Cc2ccc(-c3cnc4[nH]cc(-c5ccc6[nH]ccc6c5)c4c3)cc2)CC1C (centres unmarked) [Example 197, 1-(4-(4-(3-(1H-indol-5-yl)-1H-pyrrolo[2,3-b]pyridin-5-yl)benzyl)-2-methylpiperazin-1-yl)ethanone] | < 100
35 | CC1CN(Cc2ccc(-c3cnc4[nH]cc(-c5ccc6[nH]ccc6c5)c4c3)cc2)CCN1C (centres unmarked) [Example 198, 5-(4-((3,4-dimethylpiperazin-1-yl)methyl)phenyl)-3-(1H-indol-5-yl)-1H-pyrrolo[2,3-b]pyridine] | < 100
36 | c1cn(Cc2ccc(-c3cnc4[nH]cc(-c5ccc6[nH]ccc6c5)c4c3)cc2)cn1 [Example 199, 5-(4-((1H-imidazol-1-yl)methyl)phenyl)-3-(1H-indol-5-yl)-1H-pyrrolo[2,3-b]pyridine] | < 100
37 | CN1CCN(Cc2ccc(-c3cnc4[nH]cc(-c5ccc6nccc(O)c6c5)c4c3)cc2)CC1 [Example 200] | < 100
38 | CN1CCN(Cc2ccc(-c3cnc4[nH]cc(-c5cnc6[nH]ccc6c5)c4c3)cc2)CC1 [Example 202] | < 100
39 | CN1CCN(Cc2ccc(-c3cnc4[nH]cc(-c5ccc6ncccc6c5)c4c3)cc2)CC1 [Example 203] | < 100
40 | [2H]c1cc2cc(-c3c[nH]c4ncc(-c5ccc(CN6CCN(C)CC6)cc5)cc34)ccc2[nH]1 [Example 206] | < 100

biological target: T2, MLK3 (Rattus norvegicus, UniProt Q66HA1); experiment: not given; settings: primary rat neurons; cited from earlier work
T2 construct: autophosphorylation of MLK3 in primary rat neurons; endogenous in cells; host or cells: primary rat neurons
T2 sequence (Q66HA1 whole entry): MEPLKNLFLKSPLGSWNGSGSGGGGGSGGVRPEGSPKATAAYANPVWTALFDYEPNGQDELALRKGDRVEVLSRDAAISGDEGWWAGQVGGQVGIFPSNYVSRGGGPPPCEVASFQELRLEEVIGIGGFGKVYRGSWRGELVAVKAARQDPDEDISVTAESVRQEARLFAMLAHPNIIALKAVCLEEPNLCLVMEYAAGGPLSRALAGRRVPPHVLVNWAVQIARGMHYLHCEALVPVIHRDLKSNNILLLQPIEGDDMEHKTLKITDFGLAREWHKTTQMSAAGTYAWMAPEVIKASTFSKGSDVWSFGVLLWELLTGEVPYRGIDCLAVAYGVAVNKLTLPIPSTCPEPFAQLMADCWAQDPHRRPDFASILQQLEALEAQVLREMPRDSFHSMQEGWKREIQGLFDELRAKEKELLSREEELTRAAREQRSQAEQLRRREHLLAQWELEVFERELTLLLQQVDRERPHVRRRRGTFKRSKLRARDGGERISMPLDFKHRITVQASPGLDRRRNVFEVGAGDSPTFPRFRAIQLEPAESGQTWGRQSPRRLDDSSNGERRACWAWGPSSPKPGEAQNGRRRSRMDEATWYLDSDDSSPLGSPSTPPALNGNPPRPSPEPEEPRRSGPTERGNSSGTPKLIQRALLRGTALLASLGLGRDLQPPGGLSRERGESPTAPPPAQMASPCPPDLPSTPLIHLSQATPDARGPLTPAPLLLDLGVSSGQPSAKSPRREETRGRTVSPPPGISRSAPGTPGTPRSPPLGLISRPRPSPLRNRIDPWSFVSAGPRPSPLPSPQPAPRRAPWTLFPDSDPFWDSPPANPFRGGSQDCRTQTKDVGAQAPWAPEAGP

Row | SMILES | Tat and gp120 induced autophosphorylation of MLK3
41 | CCSCc1ccc2c(c1)c1c3c(c4c5cc(CSCC)ccc5n5c4c1n2[C@H]1C[C@](O)(C(=O)OC)[C@]5(C)O1)CNC3=O [CEP1347] | abolished
